Active and inactive are the calls of the source. The calls are words filed in the database; no cut-off is given here.

The target in assay [1] is Prostaglandin G/H synthase 1 (Homo sapiens) (UniProt P23219). Description: Inhibition of thrombin-induced platelet aggregation above 100 uM. It is filed as functional.
For assay [2] the target is unchanged. Description: Inhibition of thrombin-induced platelet aggregation below 100 uM. It is filed as functional.

Sequence of Prostaglandin G/H synthase 1 (Homo sapiens) (P23219 whole entry): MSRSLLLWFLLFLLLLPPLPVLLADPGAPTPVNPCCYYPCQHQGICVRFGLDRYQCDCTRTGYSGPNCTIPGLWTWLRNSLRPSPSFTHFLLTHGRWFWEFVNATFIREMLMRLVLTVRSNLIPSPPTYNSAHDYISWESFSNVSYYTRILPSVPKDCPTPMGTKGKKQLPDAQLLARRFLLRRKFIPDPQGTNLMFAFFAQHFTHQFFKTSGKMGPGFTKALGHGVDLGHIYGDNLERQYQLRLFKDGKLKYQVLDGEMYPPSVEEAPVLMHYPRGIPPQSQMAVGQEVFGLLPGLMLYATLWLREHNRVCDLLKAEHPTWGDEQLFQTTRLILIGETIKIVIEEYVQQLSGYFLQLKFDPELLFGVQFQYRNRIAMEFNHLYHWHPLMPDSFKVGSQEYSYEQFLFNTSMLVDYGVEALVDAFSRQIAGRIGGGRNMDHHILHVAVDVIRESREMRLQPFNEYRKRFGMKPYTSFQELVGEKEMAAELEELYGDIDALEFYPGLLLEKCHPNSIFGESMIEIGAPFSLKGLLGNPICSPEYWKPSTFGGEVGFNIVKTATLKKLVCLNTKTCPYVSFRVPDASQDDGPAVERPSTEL

For `O=C(/C=C/c1ccccc1)c1cnn(Cc2ccccc2)c(=O)c1`, the outcome in assay [1] was Active. Moreover, the outcome in assay [2] was inactive.

The values above are taken from ChEMBL document CHEMBL1138141, “Pyridazines part 41: synthesis, antiplatelet activity and SAR of 2,4,6-substituted 5-(3-oxo-3-phenylprop-1-en-1-yl)- or 5-(3-phenylprop-2-enoyl)pyridazin-3(2H)-ones” (Bioorg Med Chem Lett, 2006).
